Converted amounts (≈) assume the structure as drawn.
Legend:
[1] = Intrinsic clearance in human liver microsomes at 1 uM; assay type: ADME, Microsome
[2] = biological target: T1, Corticotropin-releasing factor receptor 1 (Rattus norvegicus, UniProt P35353); assay: Displacement of [125I]ovine-CRF from CRF1 receptor in rat frontal cortex by rapid filtration technique; assay type: tissue-based
T1 sequence (P35353 whole entry): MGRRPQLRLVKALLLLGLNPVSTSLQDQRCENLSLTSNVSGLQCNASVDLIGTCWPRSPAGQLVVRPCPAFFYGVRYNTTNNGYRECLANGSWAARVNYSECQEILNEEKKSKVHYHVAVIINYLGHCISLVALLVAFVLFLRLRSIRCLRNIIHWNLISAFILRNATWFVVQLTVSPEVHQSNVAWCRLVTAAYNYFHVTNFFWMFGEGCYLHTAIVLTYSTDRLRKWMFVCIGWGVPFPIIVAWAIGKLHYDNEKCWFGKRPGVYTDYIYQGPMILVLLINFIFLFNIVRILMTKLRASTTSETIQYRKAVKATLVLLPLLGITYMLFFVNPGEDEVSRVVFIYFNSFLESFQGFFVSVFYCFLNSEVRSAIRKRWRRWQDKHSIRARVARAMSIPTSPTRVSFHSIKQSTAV

[3] = Fraction unbound in Sprague-Dawley rat plasma at 10 mg/kg, po after 3 hrs by equilibrium dialysis; assay type: ADME, organism-based; parameters: dose 10 mg/kg, route oral
Rattus norvegicus [4] = assay: Total plasma concentration in Sprague-Dawley rat at 10 mg/kg, po; assay type: ADME, organism-based; parameters: dose 10 mg/kg, route oral; conditions: in vivo
Rattus norvegicus [5] = assay: Plasma free concentration in Sprague-Dawley rat at 10 mg/kg, po; assay type: ADME, organism-based; parameters: dose 10 mg/kg, route oral; conditions: in vivo
Rattus norvegicus [6] = assay: Ex vivo receptor occupancy of CRF1 receptor in Sprague-Dawley rat brain at 10 mg/kg, po after 20 mins by autoradiography relative to [125I-tyrosine]sauvagine; assay type: functional
[7] = Half life in Sprague-Dawley rat 2 mg/kg, iv within 0.17 to 24 hrs; assay type: ADME, organism-based; parameters: dose 2 mg/kg, route intravenous; conditions: in vivo
[8] = Volume of distribution at steady state in Sprague-Dawley rat 2 mg/kg, iv within 0.17 to 24 hrs; assay type: ADME, organism-based; parameters: dose 2 mg/kg, route intravenous; conditions: in vivo, read-out: Vdss
[9] = Clearance in Sprague-Dawley rat 2 mg/kg, iv within 0.17 to 24 hrs; assay type: ADME, organism-based; parameters: dose 2 mg/kg, route intravenous; conditions: in vivo
[10] = AUC in Sprague-Dawley rat at 10 mg/kg, po dosed as aqueous suspension of 1% polysorbate 80 in 0.5% methylcellulose within 0.25 to 24 hrs; assay type: ADME, organism-based; parameters: time 0.25-24 hr, dose 10 mg/kg, route oral; conditions: in vivo
[11] = Cmax in Sprague-Dawley rat at 10 mg/kg, po dosed as aqueous suspension of 1% polysorbate 80 in 0.5% methylcellulose within 0.25 to 24 hrs; assay type: ADME, organism-based; parameters: dose 10 mg/kg, route oral; conditions: in vivo
[12] = Oral bioavailability in Sprague-Dawley rat at 10 mg/kg dosed as aqueous suspension of 1% polysorbate 80 in 0.5% methylcellulose within 0.25 to 24 hrs; assay type: ADME, organism-based; conditions: in vivo
[13] = AUC in Sprague-Dawley rat at 10 mg/kg, po dosed as aqueous solution of oleoyl macrogolglyceride/DMAC/polysorbate 80, 85:10:5 within 0.25 to 24 hrs; assay type: ADME, organism-based; parameters: time 0.25-24 hr, dose 10 mg/kg, route oral; conditions: plasma
[14] = Cmax in Sprague-Dawley rat at 10 mg/kg, po dosed as aqueous solution of oleoyl macrogolglyceride/DMAC/polysorbate 80, 85:10:5 within 0.25 to 24 hrs; assay type: ADME, organism-based; parameters: dose 10 mg/kg, route oral; conditions: Sprague-Dawley, in vivo
[15] = Oral bioavailability in Sprague-Dawley rat at 10 mg/kg dosed as aqueous solution of oleoyl macrogolglyceride/DMAC/polysorbate 80, 85:10:5 within 0.25 to 24 hrs; assay type: ADME, organism-based; conditions: Sprague-Dawley, in vivo
[16] = Aqueous solubility at pH 1; assay type: physicochemical
[17] = Aqueous solubility at pH 6.5; assay type: physicochemical
Rattus norvegicus [18] = assay: Anxiolytic activity in Sprague-Dawley rat at 10 mg/kg, po assessed as decrease in exit latency after 60 mins by defensive withdrawal test relative to control; assay type: functional; parameters: scale not given: the % may be the effect or the level left

| CLint scaled at 1 µM [1] [mL/min/kg] | IC50 [2] [nM] | Structure (SMILES) | further results |
| --- | --- | --- | --- |
| 210 | – | CC[C@H](C1CC1)n1cc(Cl)nc(Nc2c(C)cc(Cl)cc2Cl)c1=O | – |
| 140 | 0.98 | Cc1cc(C)c(Nc2nc(Cl)cn([C@H](C)C3CC3)c2=O)c(Cl)c1 | – |
| 61 | – | COc1cc(C)c(Nc2nc(Cl)cn([C@H](C)C3CC3)c2=O)cc1C | – |
| 22 | 0.46 | C[C@H](C1CC1)n1cc(Cl)nc(Nc2c(Cl)cc(OC(F)F)cc2Cl)c1=O | – |
| 160 | – | CC[C@H](C1CC1)n1cc(Cl)nc(Nc2c(Cl)cc(C#N)cc2Cl)c1=O | – |
| 340 | – | CC[C@H](C1CC1)n1cc(Cl)nc(Nc2c(C)cc(C)cc2C)c1=O | – |
| – | 63 | C[C@H](C1CC1)n1cc(Cl)nc(Nc2c(Cl)cc(S(C)(=O)=O)cc2Cl)c1=O | – |
| 58 | – | C[C@H](C1CC1)n1cc(Cl)nc(Nc2c(Cl)cc(C#N)cc2Cl)c1=O | fraction unbound at 3 h [3]: 0.019; concentration (Rattus norvegicus [4]): 120 nM; Cp(f) (Rattus norvegicus [5]): 2.3 nM; Activity (Rattus norvegicus [6]): 11% |
| 150 | 2.3 | CC[C@H](COC)n1cc(Cl)nc(Nc2c(Cl)cc(C(F)(F)F)cc2Cl)c1=O | – |
| 77 | 1.8 | CC[C@H](C1CC1)n1cc(Cl)nc(Nc2c(Cl)cc(OC(F)(F)F)cc2Cl)c1=O | – |
| – | 18 | C[C@H](C1CC1)n1cc(Cl)nc(Nc2c(Cl)cc(Cl)cc2C#N)c1=O | – |
| 110 | 3.7 | CCCC(CCC)n1cc(Cl)nc(Nc2c(Cl)cc(C(F)(F)F)cc2Cl)c1=O | – |
| 180 | 8.2 | COc1cc(Cl)c(Nc2nc(Cl)cn([C@H](C)C3CC3)c2=O)cc1F | – |
| 32 | 11 | COC[C@@H](C)n1cc(Cl)nc(Nc2c(Cl)cc(C(F)(F)F)cc2Cl)c1=O | – |
| 130 | – | COc1cc(Cl)c(Nc2nc(Cl)cn([C@H](C)C3CC3)c2=O)c(Cl)c1 | – |
| 35 | 18 | COC[C@@H](C)n1cc(Cl)nc(Nc2c(Cl)cc(C#N)cc2Cl)c1=O | – |
| – | 4.3 | C[C@H](C1CC1)n1cc(C#N)nc(Nc2c(Cl)cc(OC(F)F)cc2Cl)c1=O | half-life [7]: 12 h; Vd [8]: 13 L/kg; clearance [9]: 21 mL/min/kg; AUC [10]: 1.9 µM·h; Cmax [11]: 160 nM; bioavailability [12]: 10%; AUC [13]: 15 µM·h; Cmax [14]: 1600 nM; bioavailability [15]: 80%; solubility [16]: < 1 µg/mL; solubility [17]: < 1 µg/mL; fraction unbound at 3 h [3]: 0.03; Activity (Rattus norvegicus [6]): 55%; Activity (Rattus norvegicus [18]): 61% |
| – | 3.1 | Cc1cn([C@H](C)C2CC2)c(=O)c(Nc2c(C)cc(Cl)cc2C)n1 | half-life [7]: 12 h; Vd [8]: 12 L/kg; clearance [9]: 30 mL/min/kg; AUC [10]: 0.95 µM·h; Cmax [11]: 95 nM; bioavailability [12]: 6%; AUC [13]: 1.7 µM·h; Cmax [14]: 270 nM; bioavailability [15]: 10%; solubility [16]: 1360 µg/mL (≈ 4100 µM); solubility [17]: 13 µg/mL (≈ 39.2 µM) |
| – | 7.9 | C[C@@H](C1CC1)n1cc(Cl)nc(Nc2c(Cl)cc(C(F)(F)F)cc2Cl)c1=O | – |
| 210 | 1.7 | CC[C@H](COC)n1cc(Cl)nc(Nc2c(Cl)cc(C#N)cc2Cl)c1=O | – |
